Test results taken from ChEMBL document CHEMBL5154798, “Structure-based discovery of receptor tyrosine kinase AXL degraders with excellent anti-tumor activity by selectively degrading AXL and inducing methuosis” (Eur J Med Chem, 2022).
Active and inactive are the calls of the source. The rule behind the calls is not given here.

Legend:
[1] = system: MDA-MB-231; assay: Antiproliferative activity against human MDA-MB-231 cells highly expressing AXL after 72 hrs by MTT assay; conditions: MDA-MB-231, 72 h
[2] = system: 4T1; assay: Antiproliferative activity against mouse 4T1 cells highly expressing AXL after 72 hrs by MTT assay; conditions: 4T1, 72 h
[3] = Cytotoxicity against human MCF-10A cells after 72 hrs by MTT assay; assay type: toxicity, cell-based
[4] = Cytotoxicity against human GES1 cells after 72 hrs by MTT assay; assay type: toxicity, cell-based
[5] = system: MDA-MB-231; assay: Induction of cytoplasmic vacuolation in human MDA-MB-231 cells at 0.5 uM; assay type: functional, cell-based
[6] = system: 4T1; assay: Induction of cytoplasmic vacuolation in mouse 4T1 cells at 0.5 uM; assay type: functional, cell-based
[7] = system: MDA-MB-231; assay: Induction of macropinocytosis in human MDA-MB-231 cells measured by LysoTracker staining based fluorescence microscopy; assay type: functional, cell-based
[8] = system: MDA-MB-231; assay: Induction of macropinocytosis in human MDA-MB-231 cells measured by MitoTracker staining based fluorescence microscopy; assay type: functional, cell-based
[9] = system: MDA-MB-231; assay: Induction of macropinocytosis in human MDA-MB-231 cells assessed as co-localization of Rab7 with lucifer yellow measured by immunofluorescence assay; assay type: functional, cell-based
[10] = system: MDA-MB-231; assay: Induction of macropinocytosis in human MDA-MB-231 cells assessed as co-localization of LAMP-1 with lucifer yellow measured by immunofluorescence assay; assay type: functional, cell-based
[11] = system: MDA-MB-231; assay: Induction of cytoplasmic vacuolation in human MDA-MB-231 cells at 1 uM in presence of 1 uM pan-caspase inhibitor Z-VAD-FMK; assay type: functional, cell-based
[12] = system: MDA-MB-231; assay: Antitumor activity against human MDA-MB-231 cells xenografted in female BALB/c nude mouse assessed as tumor growth inhibition at 25 mg/kg, ip; assay type: functional, organism-based
[13] = Toxicity in female BALB/c nude mouse xenografted with human MDA-MB-231 cells assessed as change in body wieght at 25 mg/kg, ip; assay type: organism-based; conditions: in vivo
[14] = Systemic toxicity in female BALB/c nude mouse xenografted with human MDA-MB-231 cells assessed as necrosis of heart tissue at 25 mg/kg, ip; assay type: organism-based; conditions: in vivo
[15] = Systemic toxicity in female BALB/c nude mouse xenografted with human MDA-MB-231 cells assessed as necrosis of liver tissue at 25 mg/kg, ip; assay type: organism-based; conditions: in vivo
[16] = Systemic toxicity in female BALB/c nude mouse xenografted with human MDA-MB-231 cells assessed as necrosis of spleen tissue at 25 mg/kg, ip; assay type: organism-based; conditions: in vivo
[17] = Systemic toxicity in female BALB/c nude mouse xenografted with human MDA-MB-231 cells assessed as necrosis of lung tissue at 25 mg/kg, ip; assay type: organism-based; conditions: in vivo
[18] = Systemic toxicity in female BALB/c nude mouse xenografted with human MDA-MB-231 cells assessed as necrosis of kidney tissue at 25 mg/kg, ip; assay type: organism-based; conditions: in vivo
[19] = Systemic toxicity in female BALB/c nude mouse xenografted with human MDA-MB-231 cells assessed as inflammatory cell infiltration in heart at 25 mg/kg, ip; assay type: organism-based; conditions: in vivo
[20] = Systemic toxicity in female BALB/c nude mouse xenografted with human MDA-MB-231 cells assessed as inflammatory cell infiltration in liver at 25 mg/kg, ip; assay type: organism-based; conditions: in vivo
[21] = Systemic toxicity in female BALB/c nude mouse xenografted with human MDA-MB-231 cells assessed as inflammatory cell infiltration in spleen at 25 mg/kg, ip; assay type: organism-based; conditions: in vivo
[22] = Systemic toxicity in female BALB/c nude mouse xenografted with human MDA-MB-231 cells assessed as inflammatory cell infiltration in lung at 25 mg/kg, ip; assay type: organism-based; conditions: in vivo
[23] = Systemic toxicity in female BALB/c nude mouse xenografted with human MDA-MB-231 cells assessed as inflammatory cell infiltration in kidney at 25 mg/kg, ip; assay type: organism-based; conditions: in vivo
[24] = AUC (0 to t) in male Sprague-Dawley rat at 2 mg/kg, iv administered as single dose measured by LC/MS/MS analysis; assay type: ADME, organism-based; set-up: dose 2 mg/kg, route iv; conditions: in vivo
[25] = Cmax in male Sprague-Dawley rat at 2 mg/kg, iv administered as single dose measured by LC/MS/MS analysis; assay type: ADME, organism-based; set-up: dose 2 mg/kg, route iv; conditions: in vivo
[26] = Tmax in male Sprague-Dawley rat at 2 mg/kg, iv administered as single dose measured by LC/MS/MS analysis; assay type: ADME, organism-based; conditions: in vivo
[27] = Half-life in male Sprague-Dawley rat at 2 mg/kg, iv administered as single dose measured by LC/MS/MS analysis; assay type: ADME, organism-based; conditions: in vivo
[28] = Clearance in male Sprague-Dawley rat at 2 mg/kg, iv administered as single dose measured by LC/MS/MS analysis; assay type: ADME, organism-based; conditions: male, Sprague-Dawley, in vivo
[29] = AUC (0 to t) in male Sprague-Dawley rat at 20 mg/kg, po administered as single dose measured by LC/MS/MS analysis; assay type: ADME, organism-based; set-up: dose 20 mg/kg, route po; conditions: in vivo
[30] = Cmax in male Sprague-Dawley rat at 20 mg/kg, po administered as single dose measured by LC/MS/MS analysis; assay type: ADME, organism-based; set-up: dose 20 mg/kg, route po; conditions: in vivo
[31] = Tmax in male Sprague-Dawley rat at 20 mg/kg, po administered as single dose measured by LC/MS/MS analysis; assay type: ADME, organism-based; conditions: in vivo
[32] = Half-life in male Sprague-Dawley rat at 20 mg/kg, po administered as single dose measured by LC/MS/MS analysis; assay type: ADME, organism-based; conditions: in vivo
[33] = Oral bioavailability in male Sprague-Dawley rat at 20 mg/kg administered as single dose measured by LC/MS/MS analysis; assay type: ADME, organism-based; conditions: in vivo
[34] = system: Mus musculus; assay: In vivo induction of CRBN-mediated AXL degradation in mouse measured after 6 hrs; assay type: functional, organism-based

- IC50 [1]: 10.3 µM
- IC50 [2]: 5.53 µM
- AUCt [24]: 2933.4 ng·h/mL
- Cmax [25]: 166 ng/mL
- Tmax [26]: 0.54 h
- t1/2 [27]: 0.72 h
- clearance [28]: 11.3 mL/min/kg
- AUC(0-t) [29]: 865 ng·h/mL
- Cmax [30]: 92 ng/mL
- Tmax [31]: 1.89 h
- half-life [32]: 2.37 h
- bioavailability [33]: 4.93%
SMILES: Nc1nc(Nc2ccc(CNC(=O)CCCCCCCNc3cccc4c3CN(C3CCC(=O)NC3=O)C4=O)cc2)nn1-c1ccc(-c2ccccc2)nn1 (centres undefined)
- IC50 at 72 h [3]: > 60 µM
- IC50 at 72 h [4]: > 60 µM
- Activity [5]: Active
- Activity [6]: Active
- Activity [7]: Active
- Activity [8]: Active
- Activity [9]: Active
- Activity [10]: Active
- Activity [11]: Active
- TGI [12]: Active
- Activity [13]: Non-Toxic
- Activity [14]: Non-Toxic
- Activity [15]: Non-Toxic
- Activity [16]: Non-Toxic
- Activity [17]: Non-Toxic
- Activity [18]: Non-Toxic
- Activity [19]: Non-Toxic
- Activity [20]: Non-Toxic
- Activity [21]: Non-Toxic
- Activity [22]: Non-Toxic
- Activity [23]: Non-Toxic
- Activity [34]: Active
